Assay results published in the CheMixHub ionic liquid set.
± gives the uncertainty stated by the source.

Experiment: xn = mol fraction of the nth substance listed

## N#C[N-]S(=O)(=O)C(F)(F)F.[Li+] + CCCC[N+]1(C)CCCC1.N#C[N-]S(=O)(=O)C(F)(F)F
303 K, 101 kPa, frequency 0 MHz, x1 = 0.1
  electrical conductivity: 0.295 ± 0.03 S/m
303 K, 101 kPa, x1 = 0.1
  viscosity: 89.5 ± 4.7 mPa·s
318 K, 101 kPa, frequency 0 MHz, x1 = 0.2
  electrical conductivity: 0.194 ± 0.019 S/m
318 K, 101 kPa, x1 = 0.2
  viscosity: 150 ± 8.2 mPa·s
323 K, 101 kPa, frequency 0 MHz, x1 = 0.05
  electrical conductivity: 0.706 ± 0.071 S/m
323 K, 101 kPa, frequency 0 MHz, x1 = 0.1
  electrical conductivity: 0.558 ± 0.056 S/m
323 K, 101 kPa, x1 = 0.05
  viscosity: 30.3 ± 1.6 mPa·s
323 K, 101 kPa, x1 = 0.1
  viscosity: 43.5 ± 2.2 mPa·s
328 K, 101 kPa, x1 = 0.1
  viscosity: 34.6 ± 1.8 mPa·s

## CCCC[n+]1ccn(C)c1.O=S(=O)([O-])C(F)(F)F + NCCO + O
293.15 K, 101 kPa, x2 = 0.1349, x3 = 0.8555
  viscosity: 4.3 ± 0.039 mPa·s
293.15 K, 101 kPa, x2 = 0.2358, x3 = 0.6935
  viscosity: 11.54 ± 0.16 mPa·s
298.15 K, 101 kPa, x2 = 0.1349, x3 = 0.8555
  viscosity: 3.656 ± 0.033 mPa·s
298.15 K, 101 kPa, x2 = 0.1564, x3 = 0.8171
  viscosity: 5.025 ± 0.099 mPa·s
298.15 K, 101 kPa, x2 = 0.2358, x3 = 0.6935
  viscosity: 9.48 ± 0.14 mPa·s
303.15 K, 101 kPa, x2 = 0.1349, x3 = 0.8555
  viscosity: 3.152 ± 0.028 mPa·s
303.15 K, 101 kPa, x2 = 0.1564, x3 = 0.8171
  viscosity: 4.267 ± 0.08 mPa·s
303.15 K, 101 kPa, x2 = 0.2358, x3 = 0.6935
  viscosity: 7.87 ± 0.12 mPa·s
308.15 K, 101 kPa, x2 = 0.1349, x3 = 0.8555
  viscosity: 2.758 ± 0.025 mPa·s
308.15 K, 101 kPa, x2 = 0.1564, x3 = 0.8171
  viscosity: 3.67 ± 0.066 mPa·s
308.15 K, 101 kPa, x2 = 0.2358, x3 = 0.6935
  viscosity: 6.611 ± 0.099 mPa·s
313.15 K, 101 kPa, x2 = 0.1349, x3 = 0.8555
  viscosity: 2.447 ± 0.022 mPa·s
313.15 K, 101 kPa, x2 = 0.1564, x3 = 0.8171
  viscosity: 3.186 ± 0.055 mPa·s
313.15 K, 101 kPa, x2 = 0.2358, x3 = 0.6935
  viscosity: 5.618 ± 0.082 mPa·s
318.15 K, 101 kPa, x2 = 0.1349, x3 = 0.8555
  viscosity: 2.198 ± 0.02 mPa·s
318.15 K, 101 kPa, x2 = 0.1564, x3 = 0.8171
  viscosity: 2.805 ± 0.047 mPa·s
318.15 K, 101 kPa, x2 = 0.2358, x3 = 0.6935
  viscosity: 4.823 ± 0.069 mPa·s
323.15 K, 101 kPa, x2 = 0.1349, x3 = 0.8555
  viscosity: 2.004 ± 0.018 mPa·s
323.15 K, 101 kPa, x2 = 0.1564, x3 = 0.8171
  viscosity: 2.511 ± 0.04 mPa·s
323.15 K, 101 kPa, x2 = 0.2358, x3 = 0.6935
  viscosity: 4.182 ± 0.059 mPa·s
328.15 K, 101 kPa, x2 = 0.1349, x3 = 0.8555
  viscosity: 1.847 ± 0.017 mPa·s
328.15 K, 101 kPa, x2 = 0.1564, x3 = 0.8171
  viscosity: 2.269 ± 0.034 mPa·s
328.15 K, 101 kPa, x2 = 0.2358, x3 = 0.6935
  viscosity: 3.665 ± 0.051 mPa·s
333.15 K, 101 kPa, x2 = 0.1349, x3 = 0.8555
  viscosity: 1.718 ± 0.015 mPa·s
333.15 K, 101 kPa, x2 = 0.1564, x3 = 0.8171
  viscosity: 2.073 ± 0.032 mPa·s
333.15 K, 101 kPa, x2 = 0.2358, x3 = 0.6935
  viscosity: 3.242 ± 0.044 mPa·s

## C[N+]1(CCOCCOCCOCC[N+]2(C)CCCC2)CCCC1.O=S(=O)([N-]S(=O)(=O)C(F)(F)F)C(F)(F)F.O=S(=O)([N-]S(=O)(=O)C(F)(F)F)C(F)(F)F + CC[n+]1ccn(C)c1.N#C[N-]C#N + O=S(=O)([N-]S(=O)(=O)C(F)(F)F)C(F)(F)F.[Li+]
298 K, 100 kPa, x1 = 0.1489, x2 = 0.7484
  electrical conductivity: 0.698 ± 0.028 S/m
303 K, 100 kPa, x1 = 0.1489, x2 = 0.7484
  electrical conductivity: 0.827 ± 0.033 S/m
313 K, 100 kPa, x1 = 0.1489, x2 = 0.7484
  electrical conductivity: 1.1 ± 0.044 S/m
323 K, 100 kPa, x1 = 0.1489, x2 = 0.7484
  electrical conductivity: 1.43 ± 0.057 S/m
333 K, 100 kPa, x1 = 0.1489, x2 = 0.7484
  electrical conductivity: 1.81 ± 0.072 S/m
343 K, 100 kPa, x1 = 0.1489, x2 = 0.7484
  electrical conductivity: 2.21 ± 0.089 S/m

## CCCC[n+]1ccn(C)c1.COP(=O)([O-])OC + CCCC[n+]1ccn(C)c1.O=S(=O)([N-]S(=O)(=O)C(F)(F)F)C(F)(F)F
288.15 K, 100 kPa, x2 = 0
  viscosity: 1455 ± 96 mPa·s

## CCCC[n+]1ccn(C)c1.O=S(=O)([O-])C(F)(F)F + NCCO
293.15 K, 101 kPa, x2 = 0.3209
  viscosity: 52.92 ± 0.78 mPa·s

## CCCCCCCCn1cc[n+](C)c1.F[B-](F)(F)F + CCCCOC(C)=O
298.15 K, 101 kPa, x2 = 0.114
  viscosity: 187 ± 11 mPa·s
298.15 K, 101 kPa, x2 = 0.4512
  viscosity: 34.1 ± 0.44 mPa·s
298.15 K, 101 kPa, x2 = 0.9065
  viscosity: 1.76 ± 0.03 mPa·s

## O=S(=O)([N-]S(=O)(=O)C(F)(F)F)C(F)(F)F.[Na+] + CCCC[N+]1(C)CCCC1.O=S(=O)([N-]S(=O)(=O)C(F)(F)F)C(F)(F)F
280.2 K, 100 kPa, x1 = 0.24
  electrical conductivity: 0.013 ± 0.001 S/m
338.7 K, 100 kPa, x1 = 0.24
  electrical conductivity: 0.409 ± 0.025 S/m
347.4 K, 100 kPa, x1 = 0.24
  electrical conductivity: 0.521 ± 0.031 S/m
400.6 K, 100 kPa, x1 = 0.24
  electrical conductivity: 1.83 ± 0.11 S/m

## CCCC[n+]1ccn(C)c1.[Cl-] + CO
293.15 K, 101 kPa, frequency 0 MHz, x1 = 0.007978
  electrical conductivity: 0.93 ± 0.24 S/m
293.15 K, 101 kPa, x2 = 0.5001
  viscosity: 65 ± 11 mPa·s
293.15 K, 101 kPa, x2 = 0.5458
  viscosity: 40.4 ± 6.2 mPa·s
298.15 K, 101 kPa, x2 = 0.7015
  electrical conductivity: 2.19 ± 0.04 S/m
  viscosity: 7.5 ± 1.2 mPa·s
303.15 K, 101 kPa, frequency 0 MHz, x1 = 0.00449
  electrical conductivity: 0.66 ± 0.25 S/m
303.15 K, 101 kPa, x2 = 0.5594
  viscosity: 27.1 ± 4.2 mPa·s
303.15 K, 101 kPa, x2 = 0.7001
  viscosity: 6.8 ± 1.1 mPa·s
308.15 K, 101 kPa, x2 = 0.8999
  viscosity: 1.19 ± 0.3 mPa·s
308.15 K, 101 kPa, x2 = 0.95
  viscosity: 0.79 ± 0.24 mPa·s
313.15 K, 101 kPa, frequency 0 MHz, x1 = 0.002223
  electrical conductivity: 0.42 ± 0.32 S/m
313.15 K, 101 kPa, frequency 0 MHz, x1 = 0.00354
  electrical conductivity: 0.6 ± 0.29 S/m
323.15 K, 101 kPa, frequency 0 MHz, x1 = 0.00449
  electrical conductivity: 0.83 ± 0.31 S/m
